Data published in patent US11970499B1, “Pyrazolo[1,5-c]pyrimidine compounds as CK2 inhibitors” (KING FAISAL UNIVERSITY, priority 2023, dated 2024).

How the values were obtained:
MDA-MB-231 (breast) = experiment: MTT in vitro cytotoxic activity assay, MDA-MB-231; type: cell-based; conditions: Homo sapiens; MDA-MB-231 cells, exposed for 96 hours; read-out: Cytotoxicity activity IC50, MDA-MB-231 (breast)
Method: (§1) Compounds 1-20 were screened for their in vitro cytotoxic activity utilizing a 3-(4,5-dimethyl-thiazol-2-yl)-2,5-diphenyltetrazolium bromide (MTT) assay against selected cancer human cell lines consisting of PC3 (prostate), HCT 116 (colon), A375 (melanoma), H1299 (lung), MIAPaCa-2 (pancreas), HL60 (leukemia), MCF7 (breast), MDA-MB-231 (breast) (T. Mosmann, J. Immunol. Meth., 1983, 65, 55-63). The cells were cultured at 37° C. in RMPI1640 medium supplemented with 10% fetal bovine serum, 50 IU/mL penicillin, and 50 μg/mL streptomycin in a 5% CO2 incubator. All cells were sub-cultured 3 times/week by trypsinisation. Viable cells were seeded and allowed to adhere for 12 h before a test drug was added in 96-well plates at an initial density of 1.0×10^5 cells/mL. Tumor cell lines were separately exposed to various concentrations of the tested compounds followed by incubation at a temperature of 37° C. during 96 hours inside a medium of fresh RMPI 1640. Cells were subsequently incubated at 37° C. using MTT at 0.5 mg/mL during 4 hours. After removal of supernatant, formazan crystals were dissolved in isopropanol and the optical density was measured at 570 nm. CX-4945 was used as a positive control.

PC3 (prostate) = experiment: MTT in vitro cytotoxic activity assay, PC3; type: cell-based; conditions: Homo sapiens, PC-3; PC3 cells, exposed for 96 hours; read-out: Cytotoxicity activity IC50, PC3 (prostate)
Method: as §1

HCT116 (colon) = experiment: MTT in vitro cytotoxic activity assay, HCT116; type: cell-based; conditions: Homo sapiens, HCT-116; HCT116 cells, exposed for 96 hours; read-out: Cytotoxicity activity IC50, HCT116 (colon)
Method: as §1

MCF7 (breast) = experiment: MTT in vitro cytotoxic activity assay, MCF7; type: cell-based; conditions: Homo sapiens; MCF7 cells, exposed for 96 hours; read-out: Cytotoxicity activity IC50, MCF7 (breast)
Method: as §1

H1299 (lung) = experiment: MTT in vitro cytotoxic activity assay, H1299; type: cell-based; conditions: Homo sapiens, NCI-H1299; H1299 cells, exposed for 96 hours; read-out: Cytotoxicity activity IC50, H1299 (lung)
Method: as §1

A375 (melanoma) = experiment: MTT in vitro cytotoxic activity assay, A375; type: cell-based; conditions: Homo sapiens, A-375; A375 cells, exposed for 96 hours; read-out: Cytotoxicity activity IC50, A375 (melanoma)
Method: as §1

MIAPaCa-2 (pancreas) = experiment: MTT in vitro cytotoxic activity assay, MIAPaCa-2; type: cell-based; conditions: Homo sapiens, MIA PaCa-2; MIAPaCa-2 cells, exposed for 96 hours; read-out: Cytotoxicity activity IC50, MIAPaCa-2 (pancreas)
Method: as §1

recombinant human CK2 = target: T1, recombinant human CK2 (Homo sapiens, UniProt P68400); experiment: CK2 Kinase Assay (33P-ATP, substrate peptide RRRDDDSDDD); type: biochemical; conditions: recombinant human CK2 holoenzyme, final ATP 15 μM, 10 min at 30° C.; read-out: protein kinase CK2 activity IC50
T1 construct: purchased Millipore
Method: CK2 Kinase Assay was conducted using the protocol as described in Pierre F. et al; J. Med. Chem. 2011, 54, 635-654. The tested compounds in aqueous solution were added at a volume of 10 μL to a reaction mixture comprising 10 μL of assay dilution buffer (ADB; 20 mM MOPS, pH 7.2, 25 mM β-glycerol phosphate, 5 mM EGTA, 1 mM sodium orthovanadate, and 1 mM dithiothreitol), 10 μL of substrate peptide (RRRDDDSDDD, dissolved in ADB at a concentration of 1 mM), 10 μL of recombinant human CK2 (RRββ-holoenzyme, 25 ng dissolved in ADB; Millipore). Reactions were initiated by the addition of 10 μL of ATP solution (90% 75 mMMgCl2, 75 sM ATP (final ATP concentration:15 μM) dissolved in ADB; 10% [γ-^33P] ATP (stock 1 mCi/100 μL; 3000 Ci/mmol (Perkin-Elmer) and maintained for 10 min at 30° C. The reactions were quenched with 100 μL of 0.75% phosphoric acid and then transferred to and filtered through a phosphor cellulose filter plate (Millipore). After washing each well five times with 0.75% phosphoric acid, the plate was dried under vacuum for 5 min and, following the addition of 15 μL of scintillation fluid to each well, the residual radioactivity was measured using a Wallac luminescence counter. The IC50 values were derived from eight concentrations of test inhibitors.

HL60 (leukemia) = experiment: MTT in vitro cytotoxic activity assay, HL60; type: cell-based; conditions: Homo sapiens, HL-60; HL60 cells, exposed for 96 hours; read-out: Cytotoxicity activity IC50, HL60 (leukemia)
Method: as §1

T1 sequence (P68400 whole entry): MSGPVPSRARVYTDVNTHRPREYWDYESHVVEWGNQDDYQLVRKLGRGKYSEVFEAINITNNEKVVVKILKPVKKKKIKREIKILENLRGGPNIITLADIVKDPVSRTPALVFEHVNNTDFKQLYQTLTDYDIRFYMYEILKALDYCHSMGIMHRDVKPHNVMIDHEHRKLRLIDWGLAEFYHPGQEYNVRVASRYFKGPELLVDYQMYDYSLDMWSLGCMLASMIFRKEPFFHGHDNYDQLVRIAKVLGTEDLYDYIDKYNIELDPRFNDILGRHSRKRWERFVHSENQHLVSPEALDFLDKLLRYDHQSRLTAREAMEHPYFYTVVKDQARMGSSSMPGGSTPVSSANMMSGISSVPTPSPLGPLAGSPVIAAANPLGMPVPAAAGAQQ
T1 sequence (P67870 whole entry partner): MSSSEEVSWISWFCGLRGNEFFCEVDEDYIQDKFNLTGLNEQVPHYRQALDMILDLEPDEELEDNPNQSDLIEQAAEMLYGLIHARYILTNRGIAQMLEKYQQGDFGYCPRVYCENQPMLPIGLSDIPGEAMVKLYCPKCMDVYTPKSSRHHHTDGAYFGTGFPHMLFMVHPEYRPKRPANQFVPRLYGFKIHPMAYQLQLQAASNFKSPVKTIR

## Clc1cccc(Nc2c(-c3ccncn3)nn3cnccc23)c1 [Compound 13, N-(3-chlorophenyl)-2-(pyrimidin-4-yl)pyrazolo[1,5-c]pyrimidin-3-amine]
MDA-MB-231 (breast)
  IC50: 4.6 µM
PC3 (prostate)
  IC50: 1200 nM
HCT116 (colon)
  IC50: 2100 nM
MCF7 (breast)
  IC50: 5.5 µM
H1299 (lung)
  IC50: 1600 nM
A375 (melanoma)
  IC50: 3.4 µM
MIAPaCa-2 (pancreas)
  IC50: 1500 nM
Recombinant human CK2
  IC50: 110 nM
HL60 (leukemia)
  IC50: 3.9 µM
